Consider one compound from patent US7098204B2 (C.N.R.S., priority 1999, dated 2006).

pIC50: −log10 of the molar value. In brackets after ≈: the same amount, converted by molar mass.

In one test the test system is lung, H460. Briefly: Human cancer cell line H460 proliferation. It is filed as cell-based. Conditions: NCI-H460.
The target of the next test is cdk6/cyclin D2 (Homo sapiens, UniProt Q00534). Nature of the test: cdk6/cyclin D2 kinase assay. The class given is biochemical. Conditions: 15 μM ATP. The protocol:
(§1) Kinases activities were assayed in Buffer A or C (unless otherwise stated), at 30° C., at a final ATP concentration of 15 μM. Blank values were subtracted and activities calculated as pmoles of phosphate incorporated for a 10 min. incubation (usually expressed in % of the maximal activity, i.e. without inhibitors). Controls were performed with appropriate dilutions of Me2SO. In some cases phosphorylation of the substrate was assessed by autoradiography after SDS-PAGE. IC50 values were estimated from the dose-response curves. • CDK1/cyclin B was extracted in homogenisation buffer from M phase starfish (Marthasterias glacialis) oocytes and purified by affinity chromatography on p9^CKShs1-Sepharose beads, from which it was eluted by free p9^CKShs1 as described. The kinase activity was assayed in buffer C, with 1 mg histone H1/ml, in the presence of 15 μM [γ-^32P] ATP (3,000 Ci/mmol; 1 mCi/ml) in a final volume of 30 μl. After 10 min. incubation at 30° C., 25 μl aliquots of supernatant were spotted onto 2.5×3 cm pieces of Whatman P81 phosphocellulose paper, and, 20 sec. later, the filters were washed five times (for at least 5 min. each time) in a solution of 10 ml phosphoric acid/liter of water. The wet filters were counted in the presence of 1 ml ACS (Amersham) scintillation fluid. • GSK-3β was either purified from rabbit muscle or expressed in and purified from insect Sf9 cells. […]

The subject of the next test is casein kinase 1. Nature of the test: In vitro phosphorylation of presenilin-2-MBP by casein kinase 1. It is filed as biochemical. The conditions noted are these: presenilin-2-MBP substrate, autoradiography. The protocol:
The large hydrophilic loop of presenilin-2 between transmembrane domains 6 and 7 was expressed in E. coli as a presseilin-2 loop—maltose-binding protein (MBP) fusion protein [25]. Following affinity chromatography purification presenilin-2-MBP was used as a substrate for CK1. After 30 min incubation in the presence of various HD concentrations, the kinase reaction was stopped by addition of Laemmli sample buffer. MBP-presenilin-2 was resolved by SDS-PAGE and its phosphorylation level visualised by autoradiography.

The target in a further test is cdk3/cyclin E (Homo sapiens, UniProt Q00526). Briefly: cdk3/cyclin E kinase assay. The class given is biochemical. Conditions: 15 μM ATP. How it is done: as §1
cdk3/cyclin E, sequence (Q00526 whole entry, species assumed): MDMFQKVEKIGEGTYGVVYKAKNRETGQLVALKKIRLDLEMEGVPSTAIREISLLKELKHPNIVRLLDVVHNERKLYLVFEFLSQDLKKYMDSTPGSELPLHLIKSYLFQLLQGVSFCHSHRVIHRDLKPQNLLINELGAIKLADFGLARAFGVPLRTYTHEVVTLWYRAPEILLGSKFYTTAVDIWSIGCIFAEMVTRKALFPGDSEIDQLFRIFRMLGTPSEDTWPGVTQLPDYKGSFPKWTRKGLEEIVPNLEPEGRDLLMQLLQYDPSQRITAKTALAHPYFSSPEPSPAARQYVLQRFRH
cdk3/cyclin E, sequence (P24864 whole entry partner, species assumed): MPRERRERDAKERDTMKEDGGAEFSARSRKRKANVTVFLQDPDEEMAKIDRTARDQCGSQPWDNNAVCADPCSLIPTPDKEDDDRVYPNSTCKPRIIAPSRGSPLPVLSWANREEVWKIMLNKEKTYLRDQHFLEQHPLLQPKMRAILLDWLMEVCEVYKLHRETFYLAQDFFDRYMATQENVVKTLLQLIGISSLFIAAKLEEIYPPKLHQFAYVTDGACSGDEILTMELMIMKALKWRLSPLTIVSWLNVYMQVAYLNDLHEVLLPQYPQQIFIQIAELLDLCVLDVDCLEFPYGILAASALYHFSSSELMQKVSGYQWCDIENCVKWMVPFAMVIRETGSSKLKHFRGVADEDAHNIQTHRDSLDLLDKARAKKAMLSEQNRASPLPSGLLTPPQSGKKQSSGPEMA
Another test deals with T1, erk1 (Homo sapiens, UniProt P27361).
T1 construct: His
T1 sequence (P27361 whole entry, species assumed): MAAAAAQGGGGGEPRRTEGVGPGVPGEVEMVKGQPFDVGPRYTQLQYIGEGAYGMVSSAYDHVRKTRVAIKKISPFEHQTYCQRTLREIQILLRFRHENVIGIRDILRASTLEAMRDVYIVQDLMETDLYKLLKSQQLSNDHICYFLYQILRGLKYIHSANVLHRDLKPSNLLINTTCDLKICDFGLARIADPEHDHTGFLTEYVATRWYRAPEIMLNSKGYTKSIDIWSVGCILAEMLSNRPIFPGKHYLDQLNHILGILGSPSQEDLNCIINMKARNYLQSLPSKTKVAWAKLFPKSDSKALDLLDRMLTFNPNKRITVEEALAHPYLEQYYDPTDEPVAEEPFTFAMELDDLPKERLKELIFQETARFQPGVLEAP
Briefly: erk1 kinase assay. It is filed as biochemical. Conditions: 15 μM ATP.

Another test addresses CDK5/p35 (Rattus norvegicus, UniProt Q03114). Nature of the test: In vivo Pak1 phosphorylation in cultured E18 cortical neurones. It is filed as cell-based. Also noted: endogenous in cells; host or cells: primary cortical neurones from E18 rat embryos. Conditions: 1 hour exposure. The protocol: HD was added onto cultured neurones obtained from E18 rat embryo cortices when the cultures were 4 days old. As a control DMSO was used to the maximal volume of drug used (7.5 μl). The drug was left on the cells for 1 hour. The cells were then lysed on ice in STM buffer and the membrane fraction isolated with STM containing 0.5% NP-40 [17].
Pak1 immunoprecipitations were carried out using a specific polyclonal antibody, followed by kinase assays using histone H4 as a a substrate. The amount of H4 phosphorylation, reflecting the level of Pak1 activity, was determined by measuring the intensity of the bands on autoradiography film and quantitating with NIH imaging program.
As loading controls Pak1 and p35 western blots were made. The latter protein increases in amount with the level of CDK5/p35 kinase inhibition.

The next test concerns the target protein kinase C β2 (Homo sapiens, UniProt P05771). Briefly: protein kinase C β2 assay. It is filed as biochemical. The conditions noted are these: 15 μM ATP. How it is done:
as §1

Another test addresses protein kinase C ζ (Homo sapiens, UniProt Q05513). Briefly: protein kinase C ζ assay. It is filed as biochemical. Conditions: 15 μM ATP. The protocol:
as §1

For a further test, the target named is protein kinase C δ (Homo sapiens, UniProt Q05655). Briefly: protein kinase C δ assay. The class given is biochemical. Conditions: 15 μM ATP. The protocol: as §1
protein kinase C δ, sequence (Q05655 whole entry): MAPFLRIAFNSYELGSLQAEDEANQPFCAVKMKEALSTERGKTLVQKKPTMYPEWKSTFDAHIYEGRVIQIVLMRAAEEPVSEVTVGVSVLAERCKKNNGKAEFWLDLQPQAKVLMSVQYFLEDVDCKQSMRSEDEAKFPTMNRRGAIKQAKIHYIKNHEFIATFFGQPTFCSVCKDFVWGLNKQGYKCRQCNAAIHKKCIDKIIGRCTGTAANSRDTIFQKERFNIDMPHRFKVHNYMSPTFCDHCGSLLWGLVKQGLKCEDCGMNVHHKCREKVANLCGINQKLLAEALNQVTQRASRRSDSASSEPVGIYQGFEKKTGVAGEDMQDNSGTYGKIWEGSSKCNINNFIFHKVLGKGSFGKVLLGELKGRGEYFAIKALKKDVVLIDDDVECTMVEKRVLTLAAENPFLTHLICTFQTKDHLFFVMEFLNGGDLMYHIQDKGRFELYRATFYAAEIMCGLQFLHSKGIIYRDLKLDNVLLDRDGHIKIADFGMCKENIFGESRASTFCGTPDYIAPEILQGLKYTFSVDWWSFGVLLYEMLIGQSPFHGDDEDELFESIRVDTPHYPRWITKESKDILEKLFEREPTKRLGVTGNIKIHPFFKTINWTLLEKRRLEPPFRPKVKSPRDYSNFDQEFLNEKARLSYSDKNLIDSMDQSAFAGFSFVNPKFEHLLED
For a further test, the target named is cdk4/cyclin D1 (Homo sapiens, UniProt P11802). Nature of the test: cdk4/cyclin D1 kinase assay. It is filed as biochemical. Conditions: 15 μM ATP. The protocol: as §1
cdk4/cyclin D1, sequence (P11802 whole entry, species assumed): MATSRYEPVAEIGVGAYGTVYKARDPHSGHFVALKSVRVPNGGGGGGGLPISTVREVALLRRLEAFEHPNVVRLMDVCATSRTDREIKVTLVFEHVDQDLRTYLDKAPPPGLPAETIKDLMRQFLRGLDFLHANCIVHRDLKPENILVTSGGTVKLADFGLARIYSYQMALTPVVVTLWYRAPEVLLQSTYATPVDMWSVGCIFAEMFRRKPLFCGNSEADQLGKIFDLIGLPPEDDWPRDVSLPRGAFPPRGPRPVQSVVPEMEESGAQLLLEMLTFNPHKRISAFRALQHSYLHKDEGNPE
cdk4/cyclin D1, sequence (P24385 whole entry partner, species assumed): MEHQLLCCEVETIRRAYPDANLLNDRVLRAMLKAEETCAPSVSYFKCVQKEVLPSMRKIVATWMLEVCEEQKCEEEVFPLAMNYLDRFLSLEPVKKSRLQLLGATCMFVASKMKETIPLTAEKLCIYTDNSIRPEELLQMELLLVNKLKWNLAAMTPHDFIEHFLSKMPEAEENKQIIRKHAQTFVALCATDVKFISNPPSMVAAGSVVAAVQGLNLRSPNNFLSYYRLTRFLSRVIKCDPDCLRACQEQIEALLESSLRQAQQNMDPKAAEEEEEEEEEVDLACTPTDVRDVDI
The next test has as its target GSK-3β (Mus musculus, UniProt Q9WV60). Nature of the test: MAP-1B phosphorylation by GSK-3 in cerebellar granule cells. It is filed as cell-based, mice. How it is done:
Cerebellar granule cells were isolated from newborn mice and purified according to the method of Hatten using Percoll gradients. Cells were plated onto dishes coated with poly-D-lysine (100 μg/ml) and laminin (50 μg/ml) and grown in serum-free medium for 1 day, the cultures were then treated with HD (1–100 μM) for 20 h. Cultures were fixed with 4% formaldehyde in PBS and stored in PBS at 4° C. Cells were permeabilised with 100% methanol and incubated with primary antibodies against GAP-43 and MAP-1B-P (SMI-31, Affiniti) overnight at 4° C. FITC and Texas Red conjugated secondary antibodies were used (Vector). For western blot analysis, cells were lysed in sample buffer and analysed by 8% SDS-PAGE. Proteins were transferred to nitrocellulose membranes and incubated with an antibody to MAP-1B-P (SMI-31) diluted in block solution (0.1% Tween-20, 3% dried skimmed milk in TBS) for 2 h at room temperature. HRP-conjugated secondary antibodies (Amersham) were used and proteins were visualised using the ECL system (Pierce). Blots were scanned using a flat bed scanner (UMAX Astra 1200S).

The target in a further test is protein kinase C γ (Homo sapiens, UniProt P05129). Nature of the test: protein kinase C γ assay. The class given is biochemical. Conditions: 15 μM ATP. The protocol:
as §1

In another test the target is topoisomerase I (Homo sapiens, UniProt P11387). Briefly: topoisomerase I assay. Conditions: −(x) = no effect at the highest dose tested (in parentheses). The class given is biochemical. The protocol: Enzyme activities were assayed as described in the Experimental Procedures section, in the presence of increasing HD concentrations. IC50's were calculated from the dose-response curves.−, no effect at the highest dose tested (in parentheses).
topoisomerase I, sequence (P11387 whole entry): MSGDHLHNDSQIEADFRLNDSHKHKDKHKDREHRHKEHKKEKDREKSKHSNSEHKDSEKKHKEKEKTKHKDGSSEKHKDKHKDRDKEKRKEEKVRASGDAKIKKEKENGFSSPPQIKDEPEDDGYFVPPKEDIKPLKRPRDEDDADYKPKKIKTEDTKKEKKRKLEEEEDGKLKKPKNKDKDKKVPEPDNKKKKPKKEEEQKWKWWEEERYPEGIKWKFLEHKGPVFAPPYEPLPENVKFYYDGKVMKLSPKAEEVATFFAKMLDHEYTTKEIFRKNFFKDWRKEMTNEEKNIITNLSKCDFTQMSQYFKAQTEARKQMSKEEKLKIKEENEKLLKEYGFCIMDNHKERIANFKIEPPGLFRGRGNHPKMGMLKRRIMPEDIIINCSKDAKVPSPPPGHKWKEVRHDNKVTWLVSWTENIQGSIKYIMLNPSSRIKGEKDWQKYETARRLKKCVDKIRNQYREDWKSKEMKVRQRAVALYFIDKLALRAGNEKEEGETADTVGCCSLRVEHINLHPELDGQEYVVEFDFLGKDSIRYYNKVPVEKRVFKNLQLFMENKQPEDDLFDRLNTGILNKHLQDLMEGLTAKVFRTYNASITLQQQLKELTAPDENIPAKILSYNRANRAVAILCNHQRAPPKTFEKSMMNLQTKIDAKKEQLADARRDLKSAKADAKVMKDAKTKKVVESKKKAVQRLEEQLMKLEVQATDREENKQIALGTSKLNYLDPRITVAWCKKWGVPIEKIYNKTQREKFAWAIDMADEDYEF

GSK-3β, sequence (Q9WV60 whole entry): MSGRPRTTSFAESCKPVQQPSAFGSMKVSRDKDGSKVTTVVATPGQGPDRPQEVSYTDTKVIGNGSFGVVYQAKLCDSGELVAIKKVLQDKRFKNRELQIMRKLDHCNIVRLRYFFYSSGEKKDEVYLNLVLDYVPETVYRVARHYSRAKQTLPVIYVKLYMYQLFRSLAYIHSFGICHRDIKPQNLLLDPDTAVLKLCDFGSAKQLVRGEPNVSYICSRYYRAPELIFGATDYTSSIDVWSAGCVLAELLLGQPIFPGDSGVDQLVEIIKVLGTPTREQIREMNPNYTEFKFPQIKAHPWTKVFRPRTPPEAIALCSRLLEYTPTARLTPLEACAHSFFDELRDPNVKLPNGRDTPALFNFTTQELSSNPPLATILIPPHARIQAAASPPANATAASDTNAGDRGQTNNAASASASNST
cdk6/cyclin D2, sequence (Q00534 whole entry, species assumed): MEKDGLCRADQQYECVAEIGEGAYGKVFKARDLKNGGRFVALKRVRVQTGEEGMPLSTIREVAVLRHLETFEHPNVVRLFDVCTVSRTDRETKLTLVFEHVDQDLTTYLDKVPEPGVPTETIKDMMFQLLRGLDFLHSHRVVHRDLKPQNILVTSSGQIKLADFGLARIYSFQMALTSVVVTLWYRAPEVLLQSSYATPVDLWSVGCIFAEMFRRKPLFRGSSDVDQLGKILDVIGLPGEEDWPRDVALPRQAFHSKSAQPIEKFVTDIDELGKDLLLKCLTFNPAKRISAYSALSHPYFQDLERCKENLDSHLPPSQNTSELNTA
cdk6/cyclin D2, sequence (P30279 whole entry partner, species assumed): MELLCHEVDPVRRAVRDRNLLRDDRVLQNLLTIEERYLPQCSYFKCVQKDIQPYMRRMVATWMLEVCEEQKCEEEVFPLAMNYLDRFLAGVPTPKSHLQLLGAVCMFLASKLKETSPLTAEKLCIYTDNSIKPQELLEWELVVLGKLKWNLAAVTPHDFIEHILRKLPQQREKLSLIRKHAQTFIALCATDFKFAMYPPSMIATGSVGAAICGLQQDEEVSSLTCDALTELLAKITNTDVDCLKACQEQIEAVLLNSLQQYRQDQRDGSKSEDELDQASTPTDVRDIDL
CDK5/p35, sequence (Q03114 whole entry): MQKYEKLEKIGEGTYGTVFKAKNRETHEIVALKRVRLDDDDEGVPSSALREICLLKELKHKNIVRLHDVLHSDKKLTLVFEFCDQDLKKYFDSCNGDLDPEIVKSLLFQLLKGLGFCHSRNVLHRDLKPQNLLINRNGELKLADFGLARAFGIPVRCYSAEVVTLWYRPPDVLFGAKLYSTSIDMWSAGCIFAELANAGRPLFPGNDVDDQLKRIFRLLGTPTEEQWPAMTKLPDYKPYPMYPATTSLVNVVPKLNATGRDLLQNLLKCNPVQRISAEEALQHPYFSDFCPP
CDK5/p35, sequence (P61810 2-307 partner limits assumed): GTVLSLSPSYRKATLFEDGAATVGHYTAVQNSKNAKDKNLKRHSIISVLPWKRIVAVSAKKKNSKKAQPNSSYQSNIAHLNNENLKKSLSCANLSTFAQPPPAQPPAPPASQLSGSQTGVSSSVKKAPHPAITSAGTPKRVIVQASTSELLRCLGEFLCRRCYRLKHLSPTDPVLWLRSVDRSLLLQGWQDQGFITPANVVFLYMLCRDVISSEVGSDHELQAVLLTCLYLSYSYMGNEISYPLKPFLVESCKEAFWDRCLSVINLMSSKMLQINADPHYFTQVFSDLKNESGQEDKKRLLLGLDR
Experimental for erk1: Blank values were subtracted and activities calculated as pmoles of phosphate incorporated for a 10 min. incubation (usually expressed in % of the maximal activity, i.e. without inhibitors). Controls were performed with appropriate dilutions of Me2SO. In some cases phosphorylation of the substrate was assessed by autoradiography after SDS-PAGE. […] ATP (3,000 Ci/mmol; 1 mCi/ml) in a final volume of 30 μl. After 10 min. incubation at 30° C., 25 μl aliquots of supernatant were spotted onto 2.5×3 cm pieces of Whatman P81 phosphocellulose paper, and, 20 sec. later, the filters were washed five times (for at least 5 min. each time) in a solution of 10 ml phosphoric acid/liter of water. […] ATP (3,000 Ci/mmol; 1 mCi/ml) in a final volume of 30 μl. […] Its activity was assayed in buffer C as described for CDK1/cyclin B. • CDK2/cyclin A, CDK2/cyclin E, CDK3/cyclin E, CDK4/cyclin D1, CDK6/cyclin D2, His-tagged erk1 and erk2, protein kinase C isoforms, the catalytic subunit of cAMP-dependent protein kinase, cGMP-dependent protein kinase, Myosin light chain kinase, casein kinases 1 & 2, ASK-γ (a plant homologue of GSK-3), insulin receptor tyrosine kinase domain (CIRK-41), c-raf, MAPKK, c-jun N terminal kinase (obtained from Promega), c-src kinase and v-abl kinase were assayed as described [15].

Consider `NC1=NC(=O)C(=C2CCNC(=O)c3[nH]c(Br)cc32)N1` [hymenialdisine, 4-(2-amino-4-oxo-2-imidazolin-5-ylidene)-2-bromo-4,5,6,7-tetrahydropyrrolo (2,3-c) azepine-8-one], for which the IC50 in the test with lung, H460 worked out at 42 µg/mL (≈ 130 µM). The pIC50 is 6.15 against cdk6/cyclin D2; 7.00 against cdk3/cyclin E; 6.33 at erk1; 5.77 against protein kinase C β2; 4.22 at protein kinase C ζ; 5.96 against protein kinase C δ. Also, the pIC50 on cdk4/cyclin D1 was 6.22; against protein kinase C γ, 6.30; at topoisomerase I, < 5.00. Moreover, the “presenilin-2 phosphorylation by CK1” value with casein kinase 1 is “dose-dependent inhibition of presenilin-2 phosphorylation”. Besides, on CDK5/p35, the “Pak1 activity (H4 phosphorylation) in neurons” value is on record as “increase in Pak1 activity”. Also, the “cell morphology and distribution of MAP-1B-P” value at GSK-3β (1 μM, 10 μM, 25 μM, 20 h) was “no noticeable effect”. Also, the “MAP-1B-P in axonal processes” value is given as “loss of MAP-1B-P from most of the axonal processes” at GSK-3β (50 μM, 20 h) and “loss of MAP-1B-P from processes” at GSK-3β (100 μM, 20 h). In addition, the “MAP-1B-P by Western blotting” value on GSK-3β (increasing doses 1–100 μM) was “loss of MAP-1B-P in a dose-dependent manner”.
